This note sets out measurements from patent US12371428B2 (Exelixis, Inc., priority 2019, dated 2025).

Test [1] deals with KDR (phospho-KDR, VEGF165-stimulated HUVEC cells) (Homo sapiens (Human), UniProt P35968). In words: KDR autophosphorylation ELISA in HUVEC cells (Example G). The test is classed as cell-based. As to conditions: cellular activity; KDR autophosphorylation ELISA in HUVEC cells. A digest of the protocol:
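HUVEC cells, serum-starved 24 h, were treated 1 h with an 8-point compound dilution (0.3% DMSO) and then stimulated with 100 ng/mL VEGF165 for 5 min. Phospho-KDR in lysates was quantified by sandwich ELISA against a phospho-KDR standard. IC50 from a 4-parameter logistic fit, normalised between stimulated DMSO and unstimulated controls.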

Test [2] has as its target Human MET (residues 956-1390) (Homo sapiens (Human), UniProt P08581). Put plainly: Human Met kinase assay, HTRF KinEase (Example D-2). Type of test: biochemical. As to conditions: protocol of Example D-2 (other compounds); read-out: c-Met IC50. A digest of the protocol:
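MET kinase domain (956-1390), 0.1 ng/well, in buffer with 5 mM MgCl2, 1 mM DTT and 1 mM MnCl2, phosphorylated a biotinylated peptide at ATP Km for 40 min at RT; 10 concentrations, 3% DMSO final. EDTA-stopped HTRF read after 60 min; IC50 from a 4-parameter logistic fit.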
Background: Time-resolved FRET reads energy transfer from a long-lived donor to a nearby acceptor.

Some results are limits rather than exact numbers.

Human MET (residues 956-1390), sequence (P08581 956-1390): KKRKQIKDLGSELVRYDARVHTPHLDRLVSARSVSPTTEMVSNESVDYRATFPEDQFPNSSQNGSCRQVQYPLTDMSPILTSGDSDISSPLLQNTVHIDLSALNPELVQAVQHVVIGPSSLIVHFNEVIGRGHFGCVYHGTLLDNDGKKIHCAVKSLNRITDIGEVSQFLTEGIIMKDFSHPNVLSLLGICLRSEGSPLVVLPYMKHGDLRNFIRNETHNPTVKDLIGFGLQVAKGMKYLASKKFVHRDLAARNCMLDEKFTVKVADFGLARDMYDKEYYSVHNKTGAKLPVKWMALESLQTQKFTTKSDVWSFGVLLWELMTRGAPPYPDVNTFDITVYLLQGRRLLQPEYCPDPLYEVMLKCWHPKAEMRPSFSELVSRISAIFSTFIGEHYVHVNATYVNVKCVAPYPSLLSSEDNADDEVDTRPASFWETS
KDR (phospho-KDR, VEGF165-stimulated HUVEC cells), sequence (P35968 20-1356): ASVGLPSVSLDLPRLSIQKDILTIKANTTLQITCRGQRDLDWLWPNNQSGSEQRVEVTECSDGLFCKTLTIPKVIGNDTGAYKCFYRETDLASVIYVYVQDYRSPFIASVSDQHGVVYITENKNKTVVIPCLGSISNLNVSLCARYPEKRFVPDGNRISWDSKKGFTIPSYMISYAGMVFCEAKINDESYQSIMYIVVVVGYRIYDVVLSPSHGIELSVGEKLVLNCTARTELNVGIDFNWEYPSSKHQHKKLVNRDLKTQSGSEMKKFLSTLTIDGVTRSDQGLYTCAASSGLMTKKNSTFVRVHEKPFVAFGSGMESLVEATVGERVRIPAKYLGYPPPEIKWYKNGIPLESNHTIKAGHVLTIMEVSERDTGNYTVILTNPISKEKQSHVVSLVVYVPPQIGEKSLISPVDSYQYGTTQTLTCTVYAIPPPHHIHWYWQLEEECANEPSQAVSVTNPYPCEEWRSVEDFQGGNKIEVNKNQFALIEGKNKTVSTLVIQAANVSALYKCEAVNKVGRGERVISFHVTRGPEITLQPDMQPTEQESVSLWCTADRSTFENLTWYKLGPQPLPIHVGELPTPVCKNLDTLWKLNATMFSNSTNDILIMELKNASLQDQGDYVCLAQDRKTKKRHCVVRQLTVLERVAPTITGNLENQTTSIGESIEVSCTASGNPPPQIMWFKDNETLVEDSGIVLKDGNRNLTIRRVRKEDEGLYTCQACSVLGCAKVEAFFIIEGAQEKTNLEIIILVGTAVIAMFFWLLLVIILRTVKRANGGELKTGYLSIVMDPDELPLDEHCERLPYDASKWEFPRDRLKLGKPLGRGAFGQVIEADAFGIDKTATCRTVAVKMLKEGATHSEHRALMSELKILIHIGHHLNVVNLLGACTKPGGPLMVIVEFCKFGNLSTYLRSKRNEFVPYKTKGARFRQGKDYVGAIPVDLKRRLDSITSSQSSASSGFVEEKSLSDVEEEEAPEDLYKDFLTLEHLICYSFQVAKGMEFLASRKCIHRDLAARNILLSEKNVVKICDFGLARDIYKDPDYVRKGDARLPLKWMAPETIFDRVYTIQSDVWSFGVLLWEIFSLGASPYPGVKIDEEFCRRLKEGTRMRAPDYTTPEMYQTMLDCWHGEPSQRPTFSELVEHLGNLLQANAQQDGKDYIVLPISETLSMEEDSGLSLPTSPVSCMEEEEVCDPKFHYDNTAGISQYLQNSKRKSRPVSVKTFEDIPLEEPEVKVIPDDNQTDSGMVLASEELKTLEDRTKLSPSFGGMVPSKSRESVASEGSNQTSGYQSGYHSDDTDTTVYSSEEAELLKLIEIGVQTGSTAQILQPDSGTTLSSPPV

For orientation: IC50 means the midpoint of a concentration-inhibition curve. For `COc1cc2nccc(Oc3ccc(NC(=O)c4cn(C(C)(C)C)cc(-c5ccc(F)cc5)c4=O)cc3F)c2nc1OC` [Compound 48, 1-tert-Butyl-N-[4-[(6,7-dimethoxy-1,5-naphthyridin-4-yl)oxy]-3-fluorophenyl]-5-(4-fluorophenyl)-4-oxopyridine-3-carboxamide], the IC50 was over 0.3 µM in test [1] and under 0.1 µM in test [2].
In the same order, the values of `COc1cc2nccc(Oc3ccc(NC(=O)c4cn(-c5ccn(C)n5)cc(-c5ccc(F)cc5)c4=O)cc3F)c2nc1OC` [Compound 53, N-[4-[(6,7-Dimethoxy-1,5-naphthyridin-4-yl)oxy]-3-fluorophenyl]-5-(4-fluorophenyl)-1-(1-methylpyrazol-3-yl)-4-oxopyridine-3-carboxamide] are over 0.3 µM and under 0.1 µM.
In the same order, the values of `COc1cc2nccc(Oc3ccc(NC(=O)c4cn(C)c(C)c(-c5ccc(F)cc5)c4=O)cc3F)c2nc1OC` [Compound 58, N-[4-[(6,7-Dimethoxy-1,5-naphthyridin-4-yl)oxy]-3-fluorophenyl]-5-(4-fluorophenyl)-1,6-dimethyl-4-oxopyridine-3-carboxamide] are under 0.1 µM and under 0.1 µM.
Turning to `COc1cc2nccc(Oc3ccc(NC(=O)c4cn(C5(C(F)(F)F)CC5)cc(-c5ccc(F)cc5)c4=O)cc3F)c2nc1OC` [Compound 59, N-[4-[(6,7-Dimethoxy-1,5-naphthyridin-4-yl)oxy]-3-fluorophenyl]-5-(4-fluorophenyl)-4-oxo-1-[1-(trifluoromethyl)cyclopropyl]pyridine-3-carboxamide], the values for the IC50 in test [1] and in test [2] were over 0.3 µM and under 0.1 µM, respectively.
For `COc1cc2nccc(Oc3ccc(NC(=O)c4cn(-c5cnn(C(F)F)c5)cc(-c5ccc(F)cc5)c4=O)cc3F)c2nc1OC` [Compound 60, 1-[1-(Difluoromethyl)pyrazol-4-yl]-N-[4-[(6,7-dimethoxy-1,5-naphthyridin-4-yl)oxy]-3-fluorophenyl]-5-(4-fluorophenyl)-4-oxopyridine-3-carboxamide], in that order: over 0.3 µM and under 0.1 µM.
On to `COc1cc2nccc(Oc3ccc(NC(=O)c4cn(-c5cc[nH]n5)cc(-c5ccc(F)cc5)c4=O)cc3F)c2nc1OC` [Compound 61, N-[4-[(6,7-Dimethoxy-1,5-naphthyridin-4-yl)oxy]-3-fluorophenyl]-5-(4-fluorophenyl)-4-oxo-1-(1H-pyrazol-3-yl)pyridine-3-carboxamide], for which the values for the IC50 in test [1] and in test [2] were over 0.3 µM and under 0.1 µM, respectively.
Turning to `COc1cc2nccc(Oc3ccc(NC(=O)c4cn(-c5cn[nH]c5)cc(-c5ccc(F)cc5)c4=O)cc3F)c2nc1OC` [Compound 62, N-[4-[(6,7-Dimethoxy-1,5-naphthyridin-4-yl)oxy]-3-fluorophenyl]-5-(4-fluorophenyl)-4-oxo-1-(1H-pyrazol-4-yl)pyridine-3-carboxamide], the IC50 in test [1] was over 0.3 µM; in test [2], under 0.1 µM.
As for `CCn1cc(C(=O)Nc2ccc(Oc3ccnc4cc(OC)c(OC)nc34)c(F)c2)c(=O)c(-c2ccc(F)cc2)c1C` [Compound 63, N-[4-[(6,7-Dimethoxy-1,5-naphthyridin-4-yl)oxy]-3-fluorophenyl]-1-ethyl-5-(4-fluorophenyl)-6-methyl-4-oxopyridine-3-carboxamide], the 50% inhibitory concentration (IC50) in test [1] and in test [2] was under 0.1 µM each time.
As for `COc1cnc2c(Oc3ccc(NC(=O)c4cnc(C)c(-c5ccc(F)cc5)c4O)cc3F)ccnc2c1` [Compound 64, N-[3-Fluoro-4-[(7-methoxy-1,5-naphthyridin-4-yl)oxy]phenyl]-5-(4-fluorophenyl)-4-hydroxy-6-methylpyridine-3-carboxamide], the IC50 in test [1] and in test [2] was under 0.1 µM each time.
For `COc1cc2nccc(Oc3ccc(NC(=O)c4cn(C)c(C)c(-c5ccc(F)cc5)c4=O)cc3)c2nc1OC` [Compound 65, N-[4-[(6,7-Dimethoxy-1,5-naphthyridin-4-yl)oxy]phenyl]-5-(4-fluorophenyl)-1,6-dimethyl-4-oxopyridine-3-carboxamide], the IC50 in test [1] and in test [2] was under 0.1 µM throughout.
With `COc1cnc2c(Oc3ccc(NC(=O)c4c(C)nc(C)c(-c5ccc(F)cc5)c4O)cc3F)ccnc2c1` [Compound 66, N-[3-Fluoro-4-[(7-methoxy-1,5-naphthyridin-4-yl)oxy]phenyl]-5-(4-fluorophenyl)-4-hydroxy-2,6-dimethylpyridine-3-carboxamide], the half-inhibitory concentration (IC50) in test [1] and in test [2] was under 0.1 µM throughout.
In the case of `COc1ccc2nccc(Oc3ccc(NC(=O)c4c(C)nc(C)c(-c5ccc(F)cc5)c4O)cc3F)c2n1` [Compound 67, N-[3-Fluoro-4-[(6-methoxy-1,5-naphthyridin-4-yl)oxy]phenyl]-5-(4-fluorophenyl)-4-hydroxy-2,6-dimethylpyridine-3-carboxamide], the IC50 in test [1] and in test [2] was under 0.1 µM in each case.
Regarding `COCCOc1nc2c(Oc3ccc(NC(=O)c4cnc(C)c(-c5ccc(F)cc5)c4O)cc3F)ccnc2cc1OC` [Compound 68, N-[3-Fluoro-4-[[7-methoxy-6-(2-methoxyethoxy)-1,5-naphthyridin-4-yl]oxy]phenyl]-5-(4-fluorophenyl)-4-hydroxy-6-methylpyridine-3-carboxamide], the IC50 in test [1] and in test [2] was under 0.1 µM throughout.
For the compound `COc1cc2nccc(Oc3ccc(NC(=O)c4cnc(C)c(-c5ccc(F)cc5C)c4O)cc3F)c2nc1OC` [Compound 69, N-[4-[(6,7-Dimethoxy-1,5-naphthyridin-4-yl)oxy]-3-fluorophenyl]-5-(4-fluoro-2-methylphenyl)-4-hydroxy-6-methylpyridine-3-carboxamide], the IC50 in test [1] and in test [2] was under 0.1 µM each time.
With `COc1ccc2nccc(Oc3ccc(NC(=O)c4c(C)nc(C)c(-c5ccc(F)cc5C)c4O)cc3F)c2n1` [Compound 70, N-[3-Fluoro-4-[(6-methoxy-1,5-naphthyridin-4-yl)oxy]phenyl]-5-(4-fluoro-2-methylphenyl)-4-hydroxy-2,6-dimethylpyridine-3-carboxamide], the IC50 in test [1] and in test [2] was under 0.1 µM in each case.
In the case of `COc1cc2nccc(Oc3ccc(NC(=O)c4cnc(CO)c(-c5ccc(F)cc5)c4O)cc3F)c2nc1OC` [Compound 71, N-[4-[(6,7-Dimethoxy-1,5-naphthyridin-4-yl)oxy]-3-fluorophenyl]-5-(4-fluorophenyl)-4-hydroxy-6-(hydroxymethyl)pyridine-3-carboxamide], the IC50 in test [1] and in test [2] was under 0.1 µM in each case.
`COc1cc2nccc(Oc3ccc(NC(=O)c4cn(C)c(CO)c(-c5ccc(F)cc5)c4=O)cc3F)c2nc1OC` [Compound 72, N-[4-[(6,7-Dimethoxy-1,5-naphthyridin-4-yl)oxy]-3-fluorophenyl]-5-(4-fluorophenyl)-6-(hydroxymethyl)-1-methyl-4-oxopyridine-3-carboxamide]: the IC50 in test [1] was 0.1 to 0.3 µM; in test [2], under 0.1 µM.
For `COc1cc2nccc(Oc3ccc(NC(=O)c4cn(C)c(CF)c(-c5ccc(F)cc5)c4=O)cc3F)c2nc1OC` [Compound 73, N-[4-[(6,7-Dimethoxy-1,5-naphthyridin-4-yl)oxy]-3-fluorophenyl]-6-(fluoromethyl)-5-(4-fluorophenyl)-1-methyl-4-oxopyridine-3-carboxamide], in that order: under 0.1 µM and under 0.1 µM.
For `COc1cc2nccc(Oc3ccc(NC(=O)c4cn(CC(F)(F)F)c(C)c(-c5ccc(F)cc5)c4=O)cc3F)c2nc1OC` [Compound 74, N-[4-[(6,7-Dimethoxy-1,5-naphthyridin-4-yl)oxy]-3-fluorophenyl]-5-(4-fluorophenyl)-6-methyl-4-oxo-1-(2,2,2-trifluoroethyl)pyridine-3-carboxamide], in that order: 0.1 to 0.3 µM and under 0.1 µM.
As to `COc1cc2nccc(Oc3ccc(NC(=O)c4cn(C)c(C)c(-c5ccc(F)cc5C)c4=O)cc3F)c2nc1OC` [Compound 75, N-[4-[(6,7-Dimethoxy-1,5-naphthyridin-4-yl)oxy]-3-fluorophenyl]-5-(4-fluoro-2-methylphenyl)-1,6-dimethyl-4-oxopyridine-3-carboxamide], the IC50 in test [1] and in test [2] was under 0.1 µM each time.
With `CNc1c(-c2ccc(F)cc2)c(=O)c(C(=O)Nc2ccc(Oc3ccnc4cc(OC)c(OC)nc34)c(F)c2)cn1C` [Compound 76, N-[4-[(6,7-Dimethoxy-1,5-naphthyridin-4-yl)oxy]-3-fluorophenyl]-5-(4-fluorophenyl)-1-methyl-6-(methylamino)-4-oxopyridine-3-carboxamide], the IC50 in test [1] and in test [2] was under 0.1 µM each time.
In the case of `COc1cc2nccc(Oc3ccc(NC(=O)c4cn(C)c(C#N)c(-c5ccc(F)cc5)c4=O)cc3F)c2nc1OC` [Compound 77, 6-Cyano-N-[4-[(6,7-dimethoxy-1,5-naphthyridin-4-yl)oxy]-3-fluorophenyl]-5-(4-fluorophenyl)-1-methyl-4-oxopyridine-3-carboxamide], the IC50 in test [1] was over 0.3 µM; in test [2], under 0.1 µM.
In the case of `COc1cc2nccc(Oc3ccc(NC(=O)c4cn(C)c(OC)c(-c5ccc(F)cc5)c4=O)cc3F)c2nc1OC` [Compound 78, N-[4-[(6,7-Dimethoxy-1,5-naphthyridin-4-yl)oxy]-3-fluorophenyl]-5-(4-fluorophenyl)-6-methoxy-1-methyl-4-oxopyridine-3-carboxamide], the IC50 was 0.1 to 0.3 µM in test [1] and under 0.1 µM in test [2].
